This passage reports IC50 results from BindingDB's records for doi:10.7270/Q25B013C (The Scripps Research Institute Molecular Screening Center, 2014).

Structures are written as SMILES.

The assay addresses T1, Disintegrin and metalloproteinase domain-containing protein 10 (Homo sapiens, UniProt O14672).
T1 sequence (O14672 whole entry): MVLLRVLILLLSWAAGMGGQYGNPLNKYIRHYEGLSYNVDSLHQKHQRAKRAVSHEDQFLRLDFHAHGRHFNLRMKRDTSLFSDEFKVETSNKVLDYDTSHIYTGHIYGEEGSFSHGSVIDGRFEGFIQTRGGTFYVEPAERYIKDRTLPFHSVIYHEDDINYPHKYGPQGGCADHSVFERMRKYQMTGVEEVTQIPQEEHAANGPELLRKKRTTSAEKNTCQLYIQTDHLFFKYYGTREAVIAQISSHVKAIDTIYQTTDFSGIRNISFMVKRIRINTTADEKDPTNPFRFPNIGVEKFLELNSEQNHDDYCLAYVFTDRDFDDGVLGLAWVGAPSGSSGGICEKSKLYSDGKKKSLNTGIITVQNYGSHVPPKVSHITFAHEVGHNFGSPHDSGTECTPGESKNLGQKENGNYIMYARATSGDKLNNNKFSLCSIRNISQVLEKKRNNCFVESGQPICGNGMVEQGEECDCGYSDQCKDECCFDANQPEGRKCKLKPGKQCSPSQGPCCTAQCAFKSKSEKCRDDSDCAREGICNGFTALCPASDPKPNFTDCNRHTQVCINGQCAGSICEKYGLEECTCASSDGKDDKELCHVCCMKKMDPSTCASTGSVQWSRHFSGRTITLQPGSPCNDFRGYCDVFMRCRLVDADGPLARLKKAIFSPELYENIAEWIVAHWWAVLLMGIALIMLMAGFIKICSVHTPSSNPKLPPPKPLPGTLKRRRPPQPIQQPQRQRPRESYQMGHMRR
The assay can be described thus: inhibition of ADAM10 peptide cleavage – biochemical, FRET peptide substrate, recombinant human ADAM10, selectivity assay for ADAM17 exosite inhibitor project, dose response (AID 743259).
Turning to `CCOc1ccc(NC(=O)Cc2sc(=O)n(-c3ccccc3)c2O)cc1`, the IC50 was determined as 37.7 µM.
Turning to `Cn1c(-c2sccc2OCc2ccc(Cl)cc2Cl)n[nH]c1=S`, the half-maximal inhibitory concentration (IC50) was found to be 11.1 µM.
Turning to `O=C(Cc1sc(=O)n(-c2ccccc2)c1O)Nc1ccccc1` [2-(2,4-diketo-3-phenyl-thiazolidin-5-yl)-N-phenyl-acetamide], the IC50 was 47.8 µM.
Under `COc1cccc(C2c3oc(CO)cc(=O)c3OC(=N)C2C#N)c1` (configuration not stated) [2-Amino-6-hydroxymethyl-4-(3-methoxy-phenyl)-8-oxo-4,8-dihydro-pyrano[3,2-b]pyran-3-carbonitrile] stands 69.5 µM; under `COc1ccc(NC(=O)c2oc3ccccc3c2NC(=O)C(C)(C)C)cc1` [3-(2,2-dimethylpropanoylamino)-N-(4-methoxyphenyl)-1-benzofuran-2-carboxamide], 69.5 µM; under `CCOc1cc(C(c2c(C)[nH][nH]c2=O)c2c(C)[nH][nH]c2=O)ccc1O` [4-[(3-ethoxy-4-hydroxyphenyl)-(3-methyl-5-oxo-1,2-dihydropyrazol-4-yl)methyl]-5-methyl-1,2-dihydropyrazol-3-one], 2.58 µM.
Consider `Cc1cccc(NNC2=c3cc(Br)ccc3=NC2=O)c1` [5-bromo-3-[2-(3-methylphenyl)hydrazinyl]indol-2-one], for which the IC50 was 69.5 µM.
In the case of `CC1CCCN(CCCNC(=O)c2coc3nc4ccccc4nc23)C1` (configuration not stated) [MLS000046706], the IC50 turned out to be 28.5 µM.
Turning to `O=C1OCCN1C(=O)C1=[N+](c2ccc(Br)cc2)N[C-](c2ccccc2)[C@H]1c1ccc([N+](=O)[O-])cc1` [SMR000327268], the half-inhibitory concentration (IC50) stood at 69.5 µM.
Regarding `CC(=NNC(=N)Sc1cc(O)n(-c2ccc(Br)cc2)c1O)c1cccs1` [[1-(4-bromophenyl)-2,5-bis(oxidanylidene)pyrrolidin-3-yl] N''-(1-thiophen-2-ylethylideneamino)carbamimidothioate], the 50% inhibitory concentration (IC50) turned out to be 32.5 µM.
In the case of `CC(=NNC(=N)Sc1cc(O)n(-c2ccccc2)c1O)c1cccs1` [[2,5-bis(oxidanylidene)-1-phenyl-pyrrolidin-3-yl] N'-[(E)-1-thiophen-2-ylethylideneamino]carbamimidothioate], the concentration for half-maximal inhibition (IC50) was determined as 9.95 µM.
For `COC(=O)c1cccc(Cn2c(Cl)c(CN=Nc3ccccc3C)sc2=O)c1` [methyl 3-[[4-chloro-5-[[(2-methylphenyl)hydrazinylidene]methyl]-2-oxo-1,3-thiazol-3-yl]methyl]benzoate] the value was 69.5 µM.
